Laboratory results as given in patent publication US5500430A, “Amidic derivatives of glutamic, aspartic and 2-amino adipic acids, a process for preparing same, and anti-gastrin composition containing the derivatives” (Rotta Research Laboratorium S.p.A., priority 1990, dated 1996).

Key:
[1] = test system: gastric acid secretion induced by pentagastrin; test: Antisecretive activity in anaesthetised rats (pentagastrin-stimulated gastric acid secretion); assay type: in vivo
[2] = test system: guinea-pig gall bladder contracted with CCK-8; test: Anticholecystokinin (anti-CCK) activity on guinea-pig gall bladders stimulated by CCK-8 in vitro; conditions: CCK-8 concentration 10 ng/ml, Krebs, 32° C.
Experimental: Anticholecystokinin (anti-cc, K) activity
In order to confirm the hypothesis that the molecular conformations of the compounds of the invention are suitable to provide them with antagonistic activity towards CCK as well as towards gastrin, the anticontracturant activities of some of the compounds of the invention were tested on guinea-pig gall bladders stimulated by CCK-8 in vitro.
A longitudinal strip of guinea-pig gall bladder was placed in a bath for isolated organs in the presence of Krebs at a temperature of 32° C. and oxygenated continuously with an oxygen-CO2 mixture (95-5 V/V).
The isometric contractions were detected by means of a force transducer and recorded.
The gall bladder was contracted with the use of a concentration of 10 ng/ml of CCK-8; the antagonistic activities of the compounds towards the contracturant effect of the CCK was determined with the use of different concentrations, thus determining the IC50 values, that is, the concentration of the compound in mcg/ml which can antagonise the contracturant effect of CCK by 50%.

## O=C(O)CC[C@@H](NC(=O)c1cc(Cl)cc(Cl)c1)C(=O)N1CCC2(CCCC2)CC1 [Compound C5]
[1]; Rattus norvegicus, iv, anaesthetised male rats, pentagastrin 30 mcg/Kg/h, I.V. bolus, IN with bound, read-out: Antagonistic activity (ID50) towards gastric acid secretion induced by pentagastrin
  ED50: 15 mg/kg
[1]; anaesthetised rats, pentagastrin 30 mcg/Kg/h
  Antigastrin activity (in words): particularly favourable
[1]; rats, vs C-30
  Activity as peripheral pentagastrin inhibitor relative to compound C-30: slightly more active
[2]
  Anti-CCK activity IC50: 34.8 µg/mL
